Assay results taken from US20250101034A1, “COMPOSITIONS USEFUL FOR MODULATING SPLICING” (SKYHAWK THERAPEUTICS, INC., priority 2021, published 2025).

Experiments:
total ATXN3 protein = assay: ATXN3 total protein assay (MSD, SK-N-MC cells); type: cell-based, Human; conditions: 48 hours incubation, read-out: ATXN3 Potency - Protein IC50
Procedure, shortened: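 SK-N-MC human neuroblastoma cells treated with compound (30 μM to 0.6 nM) for 48 h, then lysed with protease inhibitors. Total ATXN3 measured by MSD sandwich immunoassay (mouse capture, rabbit detection antibodies, anti-rabbit MSD-ST secondary), quantified against recombinant ATXN3 standards.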

[1] = tested on: ATXN3 transcripts containing exon 4 (E4E5); assay: ATXN3 quantitative splicing assay (qPCR, SK-N-MC cells); type: cell-based; conditions: Homo sapiens, 24 h treatment, qPCR E4E5 primers/probe, read-out: ATXN3 Potency - Splicing E4E5 IC50
Procedure, shortened: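 SK-N-MC cells treated 24 h with compound (30 μM to 0.6 nM, 0.3% DMSO) 24 h after plating; lysates reverse-transcribed and analysed by TaqMan qPCR. E4E5 primers/probe detect exon 4–containing transcripts; E8E9 measures total ATXN3, alongside exon 4–skipped transcript detection.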

IC50 (total ATXN3 protein)	IC50 [1]	SMILES
0.101 to 0.5 µM	0.501 to 5 µM	N[C@@H](CO)Cc1sc2c(NCc3ccco3)cnnc2c1Br [Compound 95, (2R)-2-amino-3-(7-bromo-4-{[(furan-2-yl)methyl]amino}thieno[3,2-c]pyridazin-6-yl)propan-1-ol]
10 to 40 µM	10 to 40 µM	Cc1c(C[C@@H](N)C[C@H]2CC2(F)F)sc2c(NCc3cccs3)cnnc12 [Compound 127, 6-[(2S)-2-amino-3-[(1S)-2,2-difluorocyclopropyl]propyl]-7-methyl-N-(thiophen-2-ylmethyl)thieno[3,2-c]pyridazin-4-amine]
10 to 40 µM	10 to 40 µM	Cc1nnc2c(C)csc2c1NCc1cccs1 [Compound 57, 3,7-dimethyl-N-[(thiophen-2-yl)methyl]thieno[3,2-c]pyridazin-4-amine]
10 to 40 µM	10 to 40 µM	CCc1csc2c(NCc3cccs3)cnnc12 [Compound 40, 7-ethyl-N-[(thiophen-2-yl)methyl]thieno[3,2-c]pyridazin-4-amine]
0.501 to 5 µM	0.501 to 5 µM	C#CC[C@H](N)Cc1sc2c(NCc3cccs3)cnnc2c1C [Compound 142, 6-[(2S)-2-aminopent-4-yn-1-yl]-7-methyl-N-(thiophen-2-ylmethyl)thieno[3,2-c]pyridazin-4-amine]
5 to 10 µM	0.501 to 5 µM	Cc1c(C[C@@H](N)COC2CC2)sc2c(NCc3cccs3)cnnc12 [Compound 131, 6-[(2R)-2-amino-3-cyclopropoxypropyl]-7-methyl-N-[(thiophen-2-yl)methyl]thieno[3,2-c]pyridazin-4-amine]
0.501 to 5 µM	0.501 to 5 µM	Cc1c(C[C@@H](N)CC(F)(F)F)sc2c(NCc3cccs3)cnnc12 [Compound 50, 6-[(2S)-2-amino-4,4,4-trifluorobutyl]-7-methyl-N-[(thiophen-2-yl)methyl]thieno[3,2-c]pyridazin-4-amine]
10 to 40 µM	10 to 40 µM	Cc1c(C[C@@H](N)C[C@@H]2CC2(F)F)sc2c(NCc3cccs3)cnnc12 [Compound 128, 6-[(2S)-2-amino-3-[(1R)-2,2-difluorocyclopropyl]propyl]-7-methyl-N-(thiophen-2-ylmethyl)thieno[3,2-c]pyridazin-4-amine]
5 to 10 µM	5 to 10 µM	Cc1c([C@@H](O)[C@H](C)N)sc2c(NCc3cccs3)cnnc12 (single isomer, unassigned) [Compound 42]
10 to 40 µM	10 to 40 µM	Cc1c(C[C@H]2CCCN2)sc2c(NCc3cccs3)cnnc12 [Compound 69, 7-methyl-6-[(2R)-pyrrolidin-2-ylmethyl]-N-(thiophen-2-ylmethyl)thieno[3,2-c]pyridazin-4-amine]
10 to 40 µM	10 to 40 µM	Cc1c(CO)sc2c(NCc3cccs3)cnnc12 [Compound 114, (7-methyl-4-{[(thiophen-2-yl)methyl]amino}thieno[3,2-c]pyridazin-6-yl)methanol]
10 to 40 µM	10 to 40 µM	Cc1c(C[C@@H](N)C[S+](C)[O-])sc2c(NCc3ccco3)cnnc12 (stereo partly drawn) [Compound 33, 6-[(2R)-2-amino-3-methanesulfinylpropyl]-N-[(furan-2-yl)methyl]-7-methylthieno[3,2-c]pyridazin-4-amine]
0.101 to 0.5 µM	0.101 to 0.5 µM	N[C@@H](CO)Cc1sc2c(NCc3cccs3)cnnc2c1Br [Compound 94, (2R)-2-amino-3-(7-bromo-4-{[(thiophen-2-yl)methyl]amino}thieno[3,2-c]pyridazin-6-yl)propan-1-ol]
0.501 to 5 µM	0.501 to 5 µM	Cc1c(C[C@@H](N)COC(F)F)sc2c(NCc3cccs3)cnnc12 [Compound 133, 6-[(2R)-2-amino-3-(difluoromethoxy)propyl]-7-methyl-N-[(thiophen-2-y1)methyl]thieno[3,2-c]pyridazin-4-amine]
0.501 to 5 µM	5 to 10 µM	Cc1c(C[C@H](N)C[C@H]2CC2(F)F)sc2c(NCc3cccs3)cnnc12 [Compound 129, 6-[(2R)-2-amino-3-[(1S)-2,2-difluorocyclopropyl]propyl]-7-methyl-N-(thiophen-2-ylmethyl)thieno[3,2-c]pyridazin-4-amine]

The next lines start with the molecule.

SMILES	IC50 (total ATXN3 protein)	IC50 [1]
Cc1c([C@@H](C)[C@H](C)N)sc2c(NCc3cccs3)cnnc12 [Compound 25]	10 to 40 µM	10 to 40 µM
C[C@H](N)Cc1sc2c(NCc3cccs3)cnnc2c1C1CC1 [Compound 80, 6-[(2S)-2-aminopropyl]-7-cyclopropyl-N-[(thiophen-2-yl)methyl]thieno[3,2-c]pyridazin-4-amine]	0.501 to 5 µM	0.501 to 5 µM
COc1csc(CNc2cnnc3c(C)c(C[C@H](C)N)sc23)c1 [Compound 75, 6-[(2S)-2-aminopropyl]-N-[(4-methoxythiophen-2-yl)methyl]-7-methylthieno[3,2-c]pyridazin-4-amine]	10 to 40 µM	10 to 40 µM
CC#Cc1c(C[C@H](C)N)sc2c(NCc3cccs3)cnnc12 [Compound 107, 6-[(2S)-2-aminopropyl]-7-(prop-1-yn-1-yl)-N-[(thiophen-2-yl)methyl]thieno[3,2-c]pyridazin-4-amine]	0.101 to 0.5 µM	0.101 to 0.5 µM
Cc1c(C[C@@H](C)N)sc2c(NCc3cccs3)cnnc12 [Compound 49, 6-[(2R)-2-aminopropyl]-7-methyl-N-[(thiophen-2-yl)methyl]thieno[3,2-c]pyridazin-4-amine]	10 to 40 µM	10 to 40 µM
C#Cc1c(C[C@H](C)N)sc2c(NCc3ccco3)cnnc12 [Compound 115, 6-[(2S)-2-aminopropyl]-7-ethynyl-N-[(furan-2-y1)methyl]thieno[3,2-c]pyridazin-4-amine]	0.101 to 0.5 µM	1e-05 to 0.1 µM
Cc1c(C[C@H](C)N)sc2c(NCc3csc(F)c3)cnnc12 [Compound 56, 6-[(2S)-2-aminopropyl]-N-[(5-fluorothiophen-3-yl)methyl]-7-methylthieno[3,2-c]pyridazin-4-amine]	10 to 40 µM	10 to 40 µM
CCc1c(C[C@H](C)N)sc2c(NCc3cccs3)cnnc12 [Compound 23, 6-[(2S)-2-aminopropyl]-7-ethyl-N-[(thiophen-2-yl)methyl]thieno[3,2-c]pyridazin-4-amine]	5 to 10 µM	5 to 10 µM
Cc1c(C[C@@H](N)CO)sc2c(NCc3ccco3)cnnc12 [Compound 1, (2R)-2-amino-3-(4-{[(furan-2-yl)methyl]amino}-7-methylthieno[3,2-c]pyridazin-6-yl)propan-1-ol]	0.501 to 5 µM	0.501 to 5 µM
Cc1c(C[C@@H](N)CS(C)(=O)=O)sc2c(NCc3ccco3)cnnc12 [Compound 32, 6-[(2R)-2-amino-3-methanesulfonylpropyl]-N-[(furan-2-yl)methyl]-7-methylthieno[3,2-c]pyridazin-4-amine]	10 to 40 µM	10 to 40 µM
Cc1c(C[C@H](C)N)sc2c(NCc3cc(F)cs3)cnnc12 [Compound 45, 6-[(2S)-2-aminopropyl]-N-[(4-fluorothiophen-2-yl)methyl]-7-methylthieno[3,2-c]pyridazin-4-amine]	0.501 to 5 µM	0.501 to 5 µM
Cc1c(C[C@@H](N)CO)sc2c(NCc3sccc3F)cnnc12 [Compound 9, (2R)-2-amino-3-(4-{[(3-fluorothiophen-2-yl)methyl]amino}-7-methylthieno[3,2-c]pyridazin-6-yl)propan-1-ol]	10 to 40 µM	10 to 40 µM
Cc1c(C[C@H](C)N)sc2c(NCc3ccco3)cnnc12 [Compound 2, 6-[(2S)-2-aminopropyl]-N-(furan-2-ylmethyl)-7-methylthieno[3,2-c]pyridazin-4-amine]	0.501 to 5 µM	0.501 to 5 µM
Cc1c(C[C@@H](N)CC(C)C)sc2c(NCc3ccco3)cnnc12 [Compound 20, 6-[(2S)-2-amino-4-methylpentyl]-N-[(furan-2-y1)methyl]-7-methylthieno[3,2-c]pyridazin-4-amine]	5 to 10 µM	5 to 10 µM
CSC[C@H](N)Cc1sc2c(NCc3ccco3)cnnc2c1C [Compound 30, 6-[(2R)-2-amino-3-(methylsulfanyl)propyl]-N-[(furan-2-yl)methyl]-7-methylthieno[3,2-c]pyridazin-4-amine]	0.501 to 5 µM	0.501 to 5 µM
C[C@H](N)Cc1sc2c(NCc3cccs3)cnnc2c1O [Compound 90, 6-[(2S)-2-aminopropyl]-4-[(thiophen-2-ylmethyl)amino]thieno[3,2-c]pyridazin-7-ol]	10 to 40 µM	10 to 40 µM
Cc1c(C[C@@H](N)CCO)sc2c(NCc3ccco3)cnnc12 [Compound 29, (3S)-3-amino-4-(4-{[(furan-2-yl)methyl]amino}-7-methylthieno[3,2-c]pyridazin-6-yl)butan-1-ol]	0.501 to 5 µM	0.501 to 5 µM
Cc1c([C@H](C)[C@H](C)N)sc2c(NCc3cccs3)cnnc12 [Compound 26]	10 to 40 µM	10 to 40 µM
Cc1c(C[C@H](C)N)sc2c(NCc3ccsc3)cnnc12 [Compound 8, 6-[(2S)-2-aminopropyl]-7-methyl-N-[(thiophen-3-yl)methyl]thieno[3,2-c]pyridazin-4-amine]	0.501 to 5 µM	0.501 to 5 µM
Cc1nnc2c(C)c(C[C@H](C)N)sc2c1NCc1cccs1 [Compound 19, 6-[(2S)-2-aminopropyl]-3,7-dimethyl-N-[(thiophen-2-yl)methyl]thieno[3,2-c]pyridazin-4-amine]	10 to 40 µM	10 to 40 µM
Cc1c(C[C@H](C)N)sc2c(NCc3ccns3)cnnc12 [Compound 18, 6-[(2S)-2-aminopropyl]-7-methyl-N-[(1,2-thiazol-5-yl)methyl]thieno[3,2-c]pyridazin-4-amine]	10 to 40 µM	10 to 40 µM
